In patent publication US9133207B2, “Tetrandrine derivatives with substituted 5-carbon, preparation method and use thereof” (Hangzhou Bensheng Pharmaceutical Co., Ltd., priority 2011, dated 2015):
Values after ≈ are worked out from the molar mass of the structure shown.

Legend:
[1] = tested on: H9 (acute lymphoblastic leukemia, ALL); test: Leukemia cell growth inhibition, MTT, 72 h (Example 5); format: cell-based, human; details: Homo sapiens; 72 h, MTT
Summary of the method: (§1)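 An MTT read-out of viable cell concentration follows 72 h incubation (37° C, 5% CO2) of 6000 cells/well in 10% FBS-supplemented 1640 medium with the 5-substituted derivatives at varying concentrations.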

[2] = tested on: Jurkat (acute lymphoblastic leukemia, ALL); test: as above; format: cell-based, human; details: for IC50 / IC90: Homo sapiens, Jurkat, 72 h, MTT
Summary of the method: as §1

[3] = tested on: K562/adr (drug-resistant, chronic myeloid leukemia, CML); test: as above; format: cell-based, human; details: Homo sapiens, K562/Adr; 72 h, MTT
Summary of the method: as §1

[4] = tested on: Kasumi-1 (acute myeloid leukemia M2 type, AML-M2); test: as above; format: cell-based, human; details: Homo sapiens, Kasumi 1
Summary of the method: as §1

[5] = tested on: NB4 (acute promyelocytic leukemia, AML); test: as above; format: cell-based, human; details: Homo sapiens; 72 h, MTT
Summary of the method: as §1

[6] = tested on: RPMI8226 (multiple myeloma); test: Multiple myeloma cell growth inhibition, MTT, 72 h (Example 6); format: cell-based, human; details: Homo sapiens, RPMI-8226; 72 h, MTT, RPMI8226
Summary of the method: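 Viability was read by MTT after 72 h of compound exposure at 37 °C, 5% CO2. Each well held 6000 RPMI8226 cells in 1640 medium containing 10% fetal bovine serum, with derivatives added at various concentrations.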

[7] = tested on: CaES-17 (esophageal cancer cell); test: Solid tumor cell growth inhibition, MTT, 72 h (Example 7); format: cell-based, human; details: Homo sapiens, CaEs17; 72 h, MTT, CAES-17
Summary of the method: (§2)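 Cell viability was quantified by MTT 72 h after adding derivatives at different concentrations to 4000 cells/well. Untreated cells served as the 100% reference.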

[8] = tested on: Hep-2 (laryngeal carcinoma); test: as above; format: cell-based, human; details: Homo sapiens; 72 h, MTT, Hep 2
Summary of the method: as §2

MG63 (osteosarcoma) = test: as above; format: cell-based, human; details: Homo sapiens; 72 h, MTT, MG-63
Summary of the method: as §2

[9] = tested on: PANC-1 (pancreatic cancer); test: as above; format: cell-based, human; details: Homo sapiens; 72 h, MTT, PANC-1
Summary of the method: as §2

PC-3 (prostate cancer) = test: as above; format: cell-based, human; details: Homo sapiens; 72 h, MTT, PC-3
Summary of the method: as §2

A549 (human lung cancer) = test: as above; format: cell-based; details: Homo sapiens; 72 h, MTT, A549
Summary of the method: as §2

[10] = tested on: Becap37 (human breast cancer cell); test: as above; format: cell-based; details: Homo sapiens; 72 h, MTT, Becap-37
Summary of the method: as §2

[11] = tested on: CNE (nasopharyngeal carcinoma cell); test: as above; format: cell-based; details: Homo sapiens
Summary of the method: as §2

[12] = tested on: Hela (human cervical cancer cell); test: as above; format: cell-based; details: Homo sapiens; 72 h, MTT, Hela
Summary of the method: as §2

[13] = tested on: Huh7 (human liver cancer cell); test: as above; format: cell-based; details: Homo sapiens; 72 h, MTT, Huh-7
Summary of the method: as §2

[14] = tested on: MGC 803 (human gastric cancer cell); test: as above; format: cell-based; details: Homo sapiens
Summary of the method: as §2

[15] = tested on: RKO (human colon adenocarcinoma cell); test: as above; format: cell-based; details: Homo sapiens; 72 h, MTT, RKO
Summary of the method: as §2

[16] = tested on: SK-OV-3 (ovarian cancer cell); test: as above; format: cell-based; details: Homo sapiens
Summary of the method: as §2

[17] = tested on: U87 MG (malignant glioma cell); test: as above; format: cell-based; details: Homo sapiens, U-87 MG
Summary of the method: as §2

COc1ccc2cc1Oc1ccc(cc1)C[C@H]1c3cc(c(OC)cc3CCN1C)Oc1c(OC)c(OC)c(CNC3CC3)c3c1[C@H](C2)N(C)CC3 [BS-TE-301]
IC50 [1]: 1.02 µg/mL (≈ 1.47 µM) | IC90 [1]: 2.12 µg/mL (≈ 3.06 µM) | IC50 [2]: 1.09 µg/mL (≈ 1.58 µM) | IC90 [2]: 6.61 µg/mL (≈ 9.55 µM) | IC50 [3]: 0.49 µg/mL (≈ 0.708 µM) | IC90 [3]: 2.81 µg/mL (≈ 4.06 µM) | IC50 [4]: 1.67 µg/mL (≈ 2.41 µM) | IC90 [4]: 5.53 µg/mL (≈ 7.99 µM) | IC50 [5]: 0.8 µg/mL (≈ 1.16 µM) | IC90 [5]: 2 µg/mL (≈ 2.89 µM) | IC50 [6]: 0.06 µg/mL (≈ 0.0867 µM) | IC90 [6]: 2.95 µg/mL (≈ 4.26 µM) | IC50 [7]: 2.93 µg/mL (≈ 4.23 µM) | IC90 [7]: 22.3 µg/mL (≈ 32.2 µM) | IC50 [8]: 3.5 µg/mL (≈ 5.06 µM) | IC90 [8]: 12.5 µg/mL (≈ 18 µM) | IC50 (MG63 (osteosarcoma)): 2 µg/mL (≈ 2.89 µM) | IC90 (MG63 (osteosarcoma)): 3.8 µg/mL (≈ 5.49 µM) | IC50 [9]: 2.79 µg/mL (≈ 4.03 µM) | IC90 [9]: 7.35 µg/mL (≈ 10.6 µM) | IC50 (PC-3 (prostate cancer)): 3.02 µg/mL (≈ 4.36 µM) | IC90 (PC-3 (prostate cancer)): 4.68 µg/mL (≈ 6.76 µM) | IC50 (A549 (human lung cancer)): 5.1 µg/mL (≈ 7.37 µM) | IC90 (A549 (human lung cancer)): > 16 µg/mL | IC50 [10]: 2.3 µg/mL (≈ 3.32 µM) | IC90 [10]: 5.6 µg/mL (≈ 8.09 µM) | IC50 [11]: 3.7 µg/mL (≈ 5.35 µM) | IC90 [11]: 6.2 µg/mL (≈ 8.96 µM) | IC50 [12]: 1.97 µg/mL (≈ 2.85 µM) | IC90 [12]: 3.83 µg/mL (≈ 5.54 µM) | IC50 [13]: 1.27 µg/mL (≈ 1.84 µM) | IC90 [13]: 2.4 µg/mL (≈ 3.47 µM) | IC50 [14]: 1.74 µg/mL (≈ 2.51 µM) | IC90 [14]: 7.1 µg/mL (≈ 10.3 µM) | IC50 [15]: 1.22 µg/mL (≈ 1.76 µM) | IC90 [15]: 2.94 µg/mL (≈ 4.25 µM) | IC50 [16]: 3.77 µg/mL (≈ 5.45 µM) | IC90 [16]: 24.3 µg/mL (≈ 35.1 µM) | IC50 [17]: 0.69 µg/mL (≈ 0.997 µM) | IC90 [17]: 3.05 µg/mL (≈ 4.41 µM)

COc1ccc2cc1Oc1ccc(cc1)C[C@H]1c3cc(c(OC)cc3CCN1C)Oc1c(OC)c(OC)c(CNCc3ccco3)c3c1[C@H](C2)N(C)CC3 [BS-TE-350]
IC50 [1]: 1.11 µg/mL (≈ 1.52 µM) | IC90 [1]: 1.92 µg/mL (≈ 2.62 µM) | IC50 [2]: 0.59 µg/mL (≈ 0.806 µM) | IC90 [2]: 2.97 µg/mL (≈ 4.06 µM) | anti-Jurkat activity increase over tetrandrine ([2]; compared with tetrandrine): ~4 fold | IC50 [3]: 0.33 µg/mL (≈ 0.451 µM) | IC90 [3]: 1.6 µg/mL (≈ 2.19 µM) | IC50 [4]: 0.54 µg/mL (≈ 0.738 µM) | IC90 [4]: 2.52 µg/mL (≈ 3.44 µM) | IC50 [5]: 0.3 µg/mL (≈ 0.41 µM) | IC90 [5]: 1 µg/mL (≈ 1.37 µM) | IC50 [6]: 0.05 µg/mL (≈ 0.0683 µM) | IC90 [6]: 1.51 µg/mL (≈ 2.06 µM) | IC50 [7]: 1.03 µg/mL (≈ 1.41 µM) | IC90 [7]: 5.13 µg/mL (≈ 7.01 µM) | IC50 [8]: 1.51 µg/mL (≈ 2.06 µM) | IC90 [8]: 4.67 µg/mL (≈ 6.38 µM) | IC50 (MG63 (osteosarcoma)): 0.8 µg/mL (≈ 1.09 µM) | IC90 (MG63 (osteosarcoma)): 1.6 µg/mL (≈ 2.19 µM) | IC50 [9]: 1.83 µg/mL (≈ 2.5 µM) | IC90 [9]: 6.04 µg/mL (≈ 8.25 µM) | IC50 (PC-3 (prostate cancer)): 1.87 µg/mL (≈ 2.56 µM) | IC90 (PC-3 (prostate cancer)): 2.83 µg/mL (≈ 3.87 µM) | IC50 (A549 (human lung cancer)): 3 µg/mL (≈ 4.1 µM) | IC90 (A549 (human lung cancer)): 11 µg/mL (≈ 15 µM) | IC50 [10]: 0.9 µg/mL (≈ 1.23 µM) | IC90 [10]: 3.6 µg/mL (≈ 4.92 µM) | IC50 [11]: 1.3 µg/mL (≈ 1.78 µM) | IC90 [11]: 3.3 µg/mL (≈ 4.51 µM) | IC50 [12]: 0.95 µg/mL (≈ 1.3 µM) | IC90 [12]: 2.5 µg/mL (≈ 3.42 µM) | IC50 [13]: 1.82 µg/mL (≈ 2.49 µM) | IC90 [13]: 2.43 µg/mL (≈ 3.32 µM) | IC50 [14]: 0.89 µg/mL (≈ 1.22 µM) | IC90 [14]: 4.11 µg/mL (≈ 5.62 µM) | IC50 [15]: 0.45 µg/mL (≈ 0.615 µM) | IC90 [15]: 0.92 µg/mL (≈ 1.26 µM) | IC50 [16]: 1.8 µg/mL (≈ 2.46 µM) | IC90 [16]: 12.9 µg/mL (≈ 17.6 µM) | IC50 [17]: 0.3 µg/mL (≈ 0.41 µM) | IC90 [17]: 1.13 µg/mL (≈ 1.54 µM)

COc1ccc2cc1Oc1ccc(cc1)C[C@H]1c3cc(c(OC)cc3CCN1C)Oc1c(OC)c(OC)c(CNCc3cccs3)c3c1[C@H](C2)N(C)CC3 [BS-TE-359]
IC50 [1]: 1.25 µg/mL (≈ 1.67 µM) | IC90 [1]: 2.3 µg/mL (≈ 3.08 µM) | IC50 [2]: 0.65 µg/mL (≈ 0.869 µM) | IC90 [2]: 5 µg/mL (≈ 6.68 µM) | IC50 [3]: 0.36 µg/mL (≈ 0.481 µM) | IC90 [3]: 2.18 µg/mL (≈ 2.91 µM) | IC50 [4]: 0.42 µg/mL (≈ 0.562 µM) | IC90 [4]: 1.83 µg/mL (≈ 2.45 µM) | IC50 [5]: 0.4 µg/mL (≈ 0.535 µM) | IC90 [5]: 1 µg/mL (≈ 1.34 µM) | IC50 [6]: 0.05 µg/mL (≈ 0.0668 µM) | IC90 [6]: 1.42 µg/mL (≈ 1.9 µM) | IC50 [7]: 1.61 µg/mL (≈ 2.15 µM) | IC90 [7]: 7.67 µg/mL (≈ 10.3 µM) | IC50 [8]: 4.6 µg/mL (≈ 6.15 µM) | IC90 [8]: 8.29 µg/mL (≈ 11.1 µM) | IC50 (MG63 (osteosarcoma)): 1.1 µg/mL (≈ 1.47 µM) | IC90 (MG63 (osteosarcoma)): 1.98 µg/mL (≈ 2.65 µM) | IC50 [9]: 2.44 µg/mL (≈ 3.26 µM) | IC90 [9]: 8.04 µg/mL (≈ 10.7 µM) | IC50 (PC-3 (prostate cancer)): 3 µg/mL (≈ 4.01 µM) | IC90 (PC-3 (prostate cancer)): 4.7 µg/mL (≈ 6.28 µM) | IC50 (A549 (human lung cancer)): 3.3 µg/mL (≈ 4.41 µM) | IC90 (A549 (human lung cancer)): 12.8 µg/mL (≈ 17.1 µM) | IC50 [10]: 1.1 µg/mL (≈ 1.47 µM) | IC90 [10]: 2 µg/mL (≈ 2.67 µM) | IC50 [11]: 1.57 µg/mL (≈ 2.1 µM) | IC90 [11]: 2.83 µg/mL (≈ 3.78 µM) | IC50 [12]: 1.09 µg/mL (≈ 1.46 µM) | IC90 [12]: 2.56 µg/mL (≈ 3.42 µM) | IC50 [13]: 1.19 µg/mL (≈ 1.59 µM) | IC90 [13]: 1.68 µg/mL (≈ 2.25 µM) | IC50 [14]: 0.88 µg/mL (≈ 1.18 µM) | IC90 [14]: 6 µg/mL (≈ 8.02 µM) | IC50 [15]: 0.58 µg/mL (≈ 0.775 µM) | IC90 [15]: 1.01 µg/mL (≈ 1.35 µM) | IC50 [16]: 2 µg/mL (≈ 2.67 µM) | IC90 [16]: 14.4 µg/mL (≈ 19.3 µM) | IC50 [17]: 0.33 µg/mL (≈ 0.441 µM) | IC90 [17]: 1.01 µg/mL (≈ 1.35 µM)
